Assay results from US20230323336A1, “HIGH-THROUGHPUT, DROPLET-BASED SINGLE CELL RNA SEQUENCING” (priority 2021, published 2023).
In brackets after ≈: the same amount, converted by molar mass.

Key:
MGH66 [1] = experiment: MIC by standard microdilution, strain MGH66; assay type: cell-based, K. pneumoniae; conditions: for MIC: Klebsiella pneumoniae
Protocol: (§1) The cells for flow cytometry were prepared using the same scheme as the meropenem-treated sample for BacDrop. After treating with meropenem at 2 µg/mL for 30 minutes, cells were diluted into PBS at the final concentration of 10^6 cells/mL and immediately run through flow cytometer. For the flow cytometry including dead-cell staining, 10 µL propidium iodide (1 mg/mL) (Invitrogen, cat# P1304MP) was mixed with 1 mL PBS. Cells after treatment were then diluted in the staining buffer at the final concentration of 10^6 cells/mL, and incubated in the dark at room temperature for 15 minutes followed by running through flow cytometer. To sort GFP-low and GFP-high populations, cells were run through fluorescence-activated cell sorting (FACS). Applicants sorted ~10^6 cells into 2 mL LB without or with meropenem (2 µg/mL) from each population. A 50 µL aliquot from cells sorted in LB medium without antibiotics was immediately diluted and plated on LB agar plates without antibiotics. The colony forming unites (CFU) on LB agar plates were enumerated to calculate the survival rates. The rest of the cells was used to measure MICs using the standard microdilution protocol^29 or proceeded with the persister assay. For the persister assay, cells were cultured at 37° C. with shaking. At each time points, a 50 µL aliquot was taken, diluted and plated on LB agar plates without antibiotics. Three replicates were performed in each experiment.

BIDMC35 = experiment: MIC by standard microdilution, strain BIDMC35; assay type: cell-based, K. pneumoniae; conditions: for MIC: Klebsiella pneumoniae
Protocol: as §1

UCI38 = experiment: MIC by standard microdilution, strain UCI38; assay type: cell-based, K. pneumoniae; conditions: for MIC: Klebsiella pneumoniae
Protocol: as §1

K. pneumoniae MGH66 [2] = experiment: Bulk RNA-seq of antibiotic-treated MGH66; assay type: cell-based; conditions: MGH66, OD600 ~0.2, 30 minutes treatment
Protocol: (§2) K.pneumoniae, E.coli, and P. aeruginosa were cultured in Luria-Bertani (LB) medium or Mueller-Hinton Broth (MHB) with shaking at 37° C.E.faecium was cultured in Todd-Hewitt broth (THB) with shaking at 37° C. For the GFP experiment, E.coli strains expressing gfp driven by different promoters were cultured separately in LB at 37° C. Early exponential growth phase cells (OD600 ~0.2) were collected and fixed immediately. For the antibiotic treatment experiment, K.pneumoniae clinical isolate MGH66 was cultured in MHB at 37° C. until early exponential phase. Then the culture was diluted to OD600 0.05 in MHB. After growing for two doublings (~40 min, OD600 ~0.2), the cultures were split into four equal volume cultures. One culture was left untreated, while the other three were treated with relevant antibiotic at breakpoint concentrations set by the Clinical and Laboratory Standards Institute (CLSI): 2 µg/mL for meropenem, 1 µg/mL for ciprofloxacin and 4 µg/mL for gentamicin. After 30 min, 7 mL of cells were collected from each of these cultures, and immediately proceeded with the cell fixation protocol. For the bulk RNA-seq experiments, samples were collected using the same treatment schemes, and three biological replicates were included in each condition. For the BIDMC35 experiment, BIDMC35 was cultured in LB medium at 37° C. until early exponential phase (OD600 ~0.2). 7 mL cells were then collected and immediately proceed with the cell fixation protocol.
To construct sequencing libraries from bacterial cultures, cell pellets collected from 1 mL early exponential phase cultures were re-suspended in 500 µL TRIzol Reagents (ThermoFisher, CN 15596026) and frozen at -80 C for at least 20 min. Cells were then thawed and mixed with 250 µL of 0.1 mm diameter Zirconia/Silica beads (BioSpec Products), and lysed mechanically via bead-beating for 90 second at 10 m/sec on a FastPrep (MP Bio). After addition of 0.1 mL chloroform, each sample tube was mixed thoroughly by inversion, incubated for 3 minutes at room temperature, and centrifuged at 12,000 xg for 15 minutes at 4° C. […]

K. pneumoniae MGH66 [3] = assay type: cell-based
Protocol: as §2
All reagents (Table 5) for cell fixation and permeabilization were kept ice-cold. […] (Digital Platform Rocker Shaker, VWR). […] Subsequent centrifugations were carried out at 7000 × g for 5 minutes at 4° C. […] Cells were centrifuged and resuspended in 700 µL50% Ethanol in PBS-RI. Cells were then washed twice with PBS-RI. After the second wash, cells were resuspended in 1 mL100 mM Tris-HCL (pH 7.5) supplemented with 0.1 U/uL NxGen RNase inhibitor.
Insufficient permeabilization may result in inefficient rRNA depletion and gDNA removal. For 1 permeabilization reaction, up to 40 million cells were centrifuged and resuspended in 250 µL0.04% Tween-20 in 1x PBS. If more cells are desired, multiple parallel reactions can be set up. Immediately following a 3-minute incubation on ice, 1 mL cold PBS-RI was added, and cells were spun down and resuspended in 200 µL lysozyme mix (100 mM Tris (pH 8.0), 50 mM EDTA pH 8.0, 0.25 U/µL NxGen RNase Inhibitor, 2.5 mg/mL lysozyme). Cells were then incubated at 37° C. for 15 minutes. After the incubation, 1 mL PBS-RI was added and cells were washed twice with 175 µL PBS-RI. After the second wash, cells were resuspended in 150 µL PBS (without RNase inhibitor added) and cell concentrations were measured.
Immediately after cell permeabilization, up to 40 million cells were centrifuged and resuspended in 11 µL nuclease-free H2O. 2 µL NEBNext Bacterial rRNA depletion solution and 2 µL Probe Hybridization Buffer (NEB, CN E7850) were mixed with cells on ice. The hybridization was conducted per the following (lid temperature set to 55° C.): 50° C. for 2 minutes, ramp down to 22° C. at 0.1° C. /second, and hold at 22° C. for 5 minutes. Probe hybridization was immediately followed by RNase H digestion by mixing the probe-hybridized cells with 2 µL RNase H reaction buffer, 2 µL Thermostable RNase H (NEB, CN E7850), and 1 µL nuclease-free H2O, followed by a 30-minute incubation at 50° C. (lid temperature set to 55° C.). […] The reaction was incubated at room temperature for 30 minutes, and the DNase treatment was stopped by adding 1 µL Stop Solution (50 mM EDTA) and incubating at 50° C. for 10 minutes. After the incubation, cells were centrifuged and washed twice with 100 µL PBS-RI. After the second wash, cells were resuspended in 20 µL0.5x PBS supplemented with 1 U/µL SUPERase-In RNase inhibitor and used immediately for in-cell reverse transcription.

E. coli 10ß = experiment: MIC by standard microdilution, strain E. coli 10ß; assay type: cell-based
Protocol: as §1, with “Three replicates were performed in each experiment.” left out

MGH66:pBA D: cspD = experiment: MIC by standard microdilution, strain MGH66:pBAD:cspD; assay type: cell-based, K. pneumoniae; conditions: cspD induced with 1% arabinose
Protocol: as §1, with “Three replicates were performed in each experiment.” left out

MGH66 [4] = experiment: RNA FISH of meropenem-treated MGH66; assay type: cell-based, K. pneumoniae; conditions: meropenem-treated MGH66, 20 fields of view
Protocol: RNA FISH probes were designed using Design Probes tool of DECIPHER^32. 3 - 5 probes were designed for each target gene (Table 11). Probes were synthesized at Integrated DNA technologies and labeled with either Cy3 or Alex488 dye at the 5′. Probes of the same gene were pooled together and diluted into 10 µM stocks. Meropenem-treated MGH66 cells were fixed and permeabilized using the same protocol as the cell fixation and permeabilization steps in BacDrop. The hybridization was carried out in 40% hybridization buffer at 50° C. overnight and the following washing steps of washing were performed as described previously^33. Cells were imaged using the DeltaVision widefield deconvolution imaging system with a 60x objective. ImageJ was used for image data analysis and cell quantification.

[5] = test system: MGH66:PyhcN:gfp and MGH66:PcspD:gfp; experiment: Flow cytometry/FACS of GFP reporter strains with live/dead staining; assay type: cell-based, K. pneumoniae
Description: (§3) Applicants amplified the promoter region of cspD or yhcN from MGH66 and ligated it into pUA139^26 using the BamHI and XhoI sites, resulting in pUA139-PcspD and pUA139-PyhcN. The construct was then transformed into E.coli DH5a and the plasmids were extracted and verified using Sanger sequencing. Electrocompetent cells of MGH66 was made as previously reported^22. The extracted plasmids were then transformed into MGH66 via electroporation, generating MGH66: PcspD:gfp and MGH66: PyhcN:gfp.
as §1

MGH66 [6] = experiment: Killing kinetics of MGH66 treated with antibiotics (CFU); assay type: cell-based, K. pneumoniae; conditions: MGH66, at 30 minutes
Protocol: At each time points, cells from meropenem treatment (green), Ciprofloxacin treatment (blue), Gentamicin treatment (purple), and the untreated samples were diluted and plated on LB agar plates without antibiotics. CFUs from each condition were normalized to the CFUs of the untreated samples at the same time points to calculate the killing rates for each time points. The experiment was repeated three times and the error bars are plotted as standard deviation.

[7] = test system: MGH66:PcspD:gfp sorted subpopulations; MGH66 over-expressing cspD; experiment: Persister assay (CFU over time under meropenem); assay type: cell-based, K. pneumoniae; conditions: meropenem 2 µg/mL
Protocol: as §1, with “Three replicates were performed in each experiment.” left out

MGH66: PyhcN:gfp = experiment: MIC by standard microdilution, reporter strain MGH66: PyhcN:gfp; assay type: cell-based, K. pneumoniae
Description: as §3
(§4) The cells for flow cytometry were prepared using the same scheme as the meropenem-treated sample for BacDrop. After treating with meropenem at 2 µg/mL for 30 minutes, cells were diluted into PBS at the final concentration of 10^6 cells/mL and immediately run through flow cytometer. For the flow cytometry including dead-cell staining, 10 µL propidium iodide (1 mg/mL) (Invitrogen, cat# P1304MP) was mixed with 1 mL PBS. Cells after treatment were then diluted in the staining buffer at the final concentration of 10^6 cells/mL, and incubated in the dark at room temperature for 15 minutes followed by running through flow cytometer. To sort GFP-low and GFP-high populations, cells were run through fluorescence-activated cell sorting (FACS). Applicants sorted ~10^6 cells into 2 mL LB without or with meropenem (2 µg/mL) from each population. […]

MGH66: PcpsD:gfp = experiment: MIC by standard microdilution, reporter strain MGH66: PcpsD:gfp; assay type: cell-based, K. pneumoniae
Description: as §3, §4

[8] = meropenem-treated MGH66, 2 µg/mL, 30 min
[9] = 30 minutes of meropenem treatment

`O=C(O)c1cn(C2CC2)c2cc(N3CCNCC3)c(F)cc2c1=O` [Ciprofloxacin, ciprofloxacin] was tested, and the MIC (MGH66 [1]) was 0.03 µg/mL (≈ 0.0905 µM), the MIC (BIDMC35) was > 32 µg/mL and the MIC (UCI38) was 32 µg/mL (≈ 96.6 µM). For the same compound, the “transcriptional response in bulk RNA-seq relative to untreated control” value (K. pneumoniae MGH66 [2]) was “induced genes involved in SOS response” and the “heterogeneity of single-cell transcriptional response” value (K. pneumoniae MGH66 [3]; MGH66, 30 min treatment) was “did not detect obvious heterogeneity of response”.

In the case of `C[C@@H](O)[C@H]1C(=O)N2C(C(=O)O)=C(S[C@@H]3CN[C@H](C(=O)N(C)C)C3)[C@H](C)[C@H]12` [Meropenem, meropenem], the MIC (MGH66 [1]) was 0.03 µg/mL (≈ 0.0782 µM), the MIC (BIDMC35) was > 32 µg/mL and the MIC (UCI38) was 0.03 µg/mL (≈ 0.0782 µM). The MIC (E. coli 10ß; Escherichia coli) was < 0.03 µg/mL, the “effect of cspD induction on MIC” value (MGH66:pBA D: cspD) was “did not affect” and the “transcriptional response in bulk RNA-seq relative to untreated control” value (K. pneumoniae MGH66 [2]) was “minimal transcriptional responses”. For the same compound, the “cells co-expressing cspD and rihC, BacDrop” value (K. pneumoniae MGH66 [3]; meropenem-treated MGH66) was ~ 0.7%, the “cells co-expressing rseB + yidC, BacDrop” value (K. pneumoniae MGH66 [3]; meropenem-treated MGH66) was ~ 8% and the “cells in DNA replication and cell division subpopulation (cluster 9)” value (K. pneumoniae MGH66 [3]; [8]) was 1%. The “cells in cell wall/membrane synthesis subpopulation (cluster 7 and 11)” value (K. pneumoniae MGH66 [3]; [8]) was 5.7%, the “cells in cspD-expressing subpopulation (cluster 10)” value (K. pneumoniae MGH66 [3]; [8]) was 0.7% and the “cells in strongest stress response subpopulation (clusters 5 and 12)” value (K. pneumoniae MGH66 [3]; [8]) was 8%. The “cells co-expressing cspD and rihC, RNA FISH” value (MGH66 [4]) was ~ 0.85%, the “cells co-expressing rseB + yidC, RNA FISH” value (MGH66 [4]) was ~ 12% and the “dead cells in the gated population (propidium iodide)” value [5, 9] was ~ 15.2%. For the same compound, the “live cells in the GFP-high population” value [5, 9] was “about 94%”, the “live cells in the GFP-low population” value [5, 9] was “approximately 80%” and the “heterogeneous expression of yhcN or cspD GFP reporters” value ([5]; MGH66:PyhcN:gfp, relative to untreated control) was “induced heterogeneous expression”. For the same compound, the “impact on cell killing” value (MGH66 [6]) was “same impact on cell killing as ciprofloxacin and gentamicin”, the “persister cells in MGH66 over-expressing cspD versus without induction” value ([7]; 1% arabinose induction) was ~ 100 times and the “tolerant cells/persisters in GFP-high versus GFP-low sorted subpopulation” value ([7]; MGH66:PcspD:gfp sorted after 30-minute exposure) was “enriched for meropenem tolerant cells”.

With gentamicin the MICs (MGH66 [1]) was 1 µg/mL, the MICs (BIDMC35) was 0.5 µg/mL and the MICs (UCI38) was 2 µg/mL. For the same compound, the MICs (E. coli 10ß) was <0.03 µg/mL, the MICs (MGH66: PyhcN:gfp) was 1 µg/mL and the MICs (MGH66: PcpsD:gfp) was 1 µg/mL. For the same compound, the “transcriptional response in bulk RNA-seq relative to untreated control” value (K. pneumoniae MGH66 [2]) was “induced a group of heat shock chaperone proteins”, the “heterogeneity of single-cell transcriptional response” value (K. pneumoniae MGH66 [3]; MGH66, 30 min treatment) was “did not detect obvious heterogeneity of response” and the “treated cells belonging to the heat-shock response cluster” value (K. pneumoniae MGH66 [3]; MGH66, 30 min treatment, across both replicates) was 66%-71%.
